Tested on: Plasmodium berghei
Test: Luciferase/luciferin-expressing antifolate-resistant parasites were used to infect a culture of HepG2 cells that were pre-incubated with compounds. Infected hepatocytes emit light due to the luciferase reaction. Assay results are presented as the percent inhibition of light emission compared to control. […]
Format: functional
Conditions: sporozoite; for IC50: read-out: LUCIFERASE INFECTION ASSAY - IC50; for IC90: read-out: LUCIFERASE INFECTION ASSAY - IC90

`O=C(OCC(=O)N(CCc1ccccc1)Cc1ccccc1)c1ccccc1NCCO` was tested, and the IC50 was > 10 µM and the IC90 was > 10 µM.
`CCCCn1c(N)c(N(CC(C)C)C(=O)c2cc(Br)c(Br)s2)c(=O)[nH]c1=O` showed an IC50 of 8.31 µM and an IC90 of 9.14 µM.
`CC(C)=CC(=O)Nc1scc(-c2ccccc2)c1C(=O)OCC(=O)Nc1cc(C)on1` was tested, and the IC50 was > 10 µM and the IC90 was > 10 µM.
In the case of `O=C(CN1C(=O)CCOc2ccccc21)N1CCN(C(=O)C2COc3ccccc3O2)CC1` (stereo not drawn), the IC50 is reported as 3.76 µM and the IC90 is reported as 8.99 µM.
In the case of `COc1ccccc1-c1noc(COC(=O)c2c[nH]nc2-c2ccccc2)n1`, the IC50 is reported as > 10 µM and the IC90 is reported as > 10 µM.
For `Cc1nc(-c2ccsc2)sc1C(=O)Nc1nc(-c2ccc(NS(C)(=O)=O)cc2)cs1`, the IC50 was 5.84 µM and the IC90 was 8.82 µM.
`Cc1ccc(CN(C)C(=O)CSc2nnc(-c3ccc(C(C)(C)C)cc3)o2)c(C)c1` was tested, and the IC50 was > 10 µM and the IC90 was > 10 µM.
`CCOc1cc(/C=C/C(=O)c2ccc(N(C)C)cc2)cc(Br)c1OCC(=O)N(C)C` was tested, and the IC50 was 2.32 µM and the IC90 was 4.93 µM.
With `O=C(NCCC1=CCCCC1)c1ccccc1CN1C(=O)CNC1=O` the IC50 was > 10 µM and the IC90 was > 10 µM.
For `CCCCN(C(=O)c1csc(-c2ccc(C(C)C)cc2)n1)c1c(N)n(CCC)c(=O)[nH]c1=O`, the IC50 was > 10 µM and the IC90 was > 10 µM.
`O=C(NNC(=O)c1ccccc1Nc1ccccc1)c1ccccc1O` was tested, and the IC50 was 8.81 µM and the IC90 was 9.6 µM.
With `CCOc1ccc(OCC)c(NC(=O)/C=C/c2c(C)nn(-c3ccccc3)c2C)c1` the IC50 was 9.19 µM and the IC90 was > 10 µM.
`O=C(Cc1csc(-c2ccc(C(F)(F)F)cc2)n1)NCc1cnn(-c2ccccc2)c1` was tested, and the IC50 was > 10 µM and the IC90 was > 10 µM.
In the case of `CCN(CC)S(=O)(=O)c1ccc(O)c(NC(=O)c2ccc(SC(F)(F)F)cc2)c1`, the IC50 is reported as > 10 µM and the IC90 is reported as > 10 µM.
With `COc1cccc(/C=C/C(=O)Nc2nc3c(s2)CN(C(=O)OC(C)(C)C)CC3)c1` the IC50 was 0.387 µM and the IC90 was 0.475 µM.
For `CCOc1cc(/C=C/C(=O)c2ccc(F)c(Br)c2)cc(Cl)c1OCC(=O)N(C)C`, the IC50 was > 10 µM and the IC90 was > 10 µM.
In the case of `O=C(COc1ccccc1C(=O)NCc1ccccc1)NC(c1ccc(F)cc1)c1cccs1` (stereo not drawn), the IC50 is reported as 8.41 µM and the IC90 is reported as > 10 µM.
With `COCCN(Cc1nc(=O)c2ccccc2[nH]1)C(=O)c1cc(C(C)(C)C)cc(C(C)(C)C)c1O` the IC50 was > 10 µM and the IC90 was > 10 µM.
With `CCc1ccc(N(C(=O)C2CCN(C(=O)C(C)(C)C)CC2)c2nc3ccccc3s2)cc1` the IC50 was > 10 µM and the IC90 was > 10 µM.
`CCCN(Cc1nc(=O)c2ccc(Cl)cc2[nH]1)C(=O)C1CCN(c2nc3ccccc3o2)CC1` was tested, and the IC50 was > 10 µM and the IC90 was > 10 µM.
With `CC(C)c1cccc(NC(=O)COc2ccc(S(N)(=O)=O)cc2[N+](=O)[O-])c1` the IC50 was > 10 µM and the IC90 was > 10 µM.
For `N#Cc1ccc(NC(=O)c2cnn(Cc3ccccc3Cl)c2)cc1`, the IC50 was > 10 µM and the IC90 was > 10 µM.
With `O=C(OCc1cn(-c2ccccc2)nc1-c1ccccc1)c1ccc(N2CCOCC2)nc1` the IC50 was > 10 µM and the IC90 was > 10 µM.
For `Cc1ccc(-c2c(C)sc3[nH]c(CN(C)CC(=O)Nc4cccc(C)c4C)nc(=O)c23)cc1`, the IC50 was > 10 µM and the IC90 was > 10 µM.
In the case of `Cc1ccc(S(=O)(=O)N2CCCC(C(=O)NNC(=O)CCNC(=O)/C=C/c3ccccc3)C2)cc1` (stereo not drawn), the IC50 is reported as > 10 µM and the IC90 is reported as > 10 µM.
With `N#CCCn1cc(/C=C(\C#N)c2nc3ccccc3[nH]2)c(-c2ccccc2)n1` the IC50 was > 10 µM and the IC90 was > 10 µM.
With `CCS(=O)(=O)c1ccc(O)c(NC(=O)Cc2csc(-c3ccsc3)n2)c1` the IC50 was > 10 µM and the IC90 was > 10 µM.
With `O=C(CNc1ccccc1-c1ccccc1)Nc1cc(Cl)ccc1F` the IC50 was > 10 µM and the IC90 was > 10 µM.
`Cc1cc(=O)n2nc(-c3ccccc3)cc2n1CC(=O)Nc1cc(Cl)ccc1N1CCCCC1` was tested, and the IC50 was 3.43 µM and the IC90 was 4.37 µM.
`CNC(=O)c1ccc(/C=C/C(=O)c2ccc3cccc4c3c2CC4)cc1` was tested, and the IC50 was > 10 µM and the IC90 was > 10 µM.
In the case of `COCCn1cnc2c1c(=O)n(CC(=O)NC1(C#N)CCCCCC1)c(=O)n2CC(C)C`, the IC50 is reported as > 10 µM and the IC90 is reported as > 10 µM.
For `Cc1cccc2sc(N(Cc3ccccc3)C(=O)C3CCN(C(=O)C(C)(C)C)CC3)nc12`, the IC50 was > 10 µM and the IC90 was > 10 µM.
`CC(Sc1nnc(/C=C/c2ccc(F)cc2)[nH]1)C(=O)NC(C)(C)C` (stereo not drawn) showed an IC50 of 2.09 µM and an IC90 of 5.34 µM.
For `Cc1ccc(-c2n[nH]c(=S)n2CCC(=O)NC(C)c2ccc(F)c(F)c2)cc1` (stereo not drawn), the IC50 was > 10 µM and the IC90 was > 10 µM.
For `CC(C)C(Nc1ccc(S(=O)(=O)N2CCOCC2)cc1[N+](=O)[O-])c1nc2ccccc2[nH]1` (stereo not drawn), the IC50 was 9.46 µM and the IC90 was > 10 µM.
In the case of `CCOC(=O)c1nc(N(CCc2ccccc2)C(=O)c2cnc3c(cnn3C(C)C)c2)sc1C`, the IC50 is reported as > 10 µM and the IC90 is reported as > 10 µM.
In the case of `CCc1noc(C)c1C(=O)OCc1csc(N(C(C)=O)c2ccccc2)n1`, the IC50 is reported as > 10 µM and the IC90 is reported as > 10 µM.
With `O=C(CN1c2cccc3cccc(c23)S1(=O)=O)Nc1ccc(-c2nc3ccccc3[nH]2)cc1` the IC50 was > 10 µM and the IC90 was > 10 µM.
Compound `CCCn1c(N)c(N2CCCCC2)c(=O)n(Cc2nc(N)nc(Nc3ccccc3)n2)c1=O` has an IC50 of 2.17 µM and an IC90 of 3.51 µM.
